Test results published in patent publication US9963442B2, “Pyridones as herbicides” (E I DU PONT DE NEMOURS AND COMPANY, priority 2014, dated 2018).

How the values were obtained:
Type in all cases: in vivo
[1] = tested on: Italian ryegrass (Lolium multiflorum); experiment: Test A preemergence, directed soil spray; settings: approx. 10 days
Method in brief: (§1)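 Compounds in non-phytotoxic solvent with surfactant applied as directed soil spray preemergence or postemergence to plants 2–10 cm, one- to two-leaf stage, in loam/sand. Injury rated visually versus untreated controls after about 10 days in greenhouse, 0 (no effect) to 100 (complete control).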

[2] = tested on: barnyardgrass (Echinochloa crus-galli); experiment: Test A preemergence, directed soil spray; settings: approx. 10 days
Method in brief: as §1

[3] = tested on: giant foxtail (Setaria faberii); experiment: Test A preemergence, directed soil spray; settings: approx. 10 days
Method in brief: as §1

kochia (Kochia scoparia) [4] = experiment: Test A preemergence, directed soil spray; settings: approx. 10 days
Method in brief: as §1

[5] = tested on: pigweed (Amaranthus retroflexus); experiment: Test A preemergence, directed soil spray; settings: approx. 10 days
Method in brief: as §1

[6] = tested on: ragweed (common ragweed, Ambrosia elatior); experiment: Test A preemergence, directed soil spray; settings: approx. 10 days
Method in brief: as §1

[7] = tested on: Italian ryegrass (Lolium multiflorum); experiment: Test A postemergence application; settings: approx. 10 days
Method in brief: as §1

[8] = tested on: barnyardgrass (Echinochloa crus-galli); experiment: Test A postemergence application; settings: approx. 10 days
Method in brief: as §1

[9] = tested on: blackgrass (Alopecurus myosuroides); experiment: Test A postemergence application; settings: approx. 10 days
Method in brief: as §1

corn (Zea mays) [10] = experiment: Test A postemergence application; settings: approx. 10 days
Method in brief: as §1

[11] = tested on: galium (catchweed bedstraw, Galium aparine); experiment: Test A postemergence application; settings: approx. 10 days
Method in brief: as §1

[12] = tested on: giant foxtail (Setaria faberii); experiment: Test A postemergence application; settings: approx. 10 days
Method in brief: as §1

kochia (Kochia scoparia) [13] = experiment: Test A postemergence application; settings: approx. 10 days
Method in brief: as §1

[14] = tested on: pigweed (Amaranthus retroflexus); experiment: Test A postemergence application; settings: approx. 10 days
Method in brief: as §1

[15] = tested on: ragweed (common ragweed, Ambrosia elatior); experiment: Test A postemergence application; settings: approx. 10 days
Method in brief: as §1

[16] = tested on: wheat (Triticum aestivum); experiment: Test A postemergence application; settings: approx. 10 days
Method in brief: as §1

[17] = tested on: johnsongrass (Sorghum halepense); experiment: Test C preemergence; settings: scale 0 to 100, 0 is no effect, 100 is complete control
Method in brief: (§2)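 Each species was evaluated by eye against untreated controls at 13 to 15 days post-treatment and rated 0–100, with 100 indicating complete control. Applications were made preemergence to seeded soil or postemergence to seedlings at the 1- to 4-leaf stage, using a surfactant-containing solvent formulation.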

soybean (Glycine max) = experiment: Test C preemergence; settings: 31 g ai/ha, scale 0 to 100, 0 is no effect, 100 is complete control
Method in brief: as §2

[18] = tested on: Italian ryegrass (Lolium multiflorum); experiment: Test C postemergence; settings: scale 0 to 100, 0 is no effect, 100 is complete control
Description: (§3) Seeds of plant species selected from blackgrass (Alopecurus myosuroides), Italian ryegrass (Lolium multiflorum), winter wheat (Triticum aestivum), galium (catchweed bedstraw, Galium aparine), corn (Zea mays), large (Lg) crabgrass (Digitaria sanguinalis), giant foxtail (Setaria faberii), johnsongrass (Sorghum halepense), lambsquarters (Chenopodium album), morningglory (Ipomoea coccinea), yellow nutsedge (Cyperus esculentus), pigweed (Amaranthus retroflexus), ragweed (common ragweed, Ambrosia elatior), soybean (Glycine max), barnyardgrass (Echinochloa crus-galli), oilseed rape (Brassica napus), waterhemp (common waterhemp, Amaranthus rudis), and velvetleaf (Abutilon theophrasti) were planted into a blend of loam soil and sand and treated preemergence with test chemicals formulated in a non-phytotoxic solvent mixture which included a surfactant. At the same time, plants selected from these crop and weed species and also chickweed (common chickweed, Stellaria media), kochia (Kochia scoparia), and wild oat (Avena fatua), were planted in pots containing Sunshine Redi-Earth® planting medium comprising spaghnum peat moss, vermiculite, starter nutrients and dolomitic limestone and treated with postemergence applications of test chemicals formulated in the same manner. Plants ranged in height from 2 to 18 cm (1- to 4-leaf stage) for postemergence treatments. Treated plants and controls were maintained in a greenhouse for 13 to 15 days, after which time all species were compared to controls and visually evaluated. Plant response ratings, summarized in Table C, are based on a scale of 0 to 100 where 0 is no effect and 100 is complete control. A dash (-) response means no test result.

corn (Zea mays) [19] = experiment: Test C postemergence; settings: scale 0 to 100, 0 is no effect, 100 is complete control
Description: as §3

[20] = tested on: galium (catchweed bedstraw, Galium aparine); experiment: Test C postemergence; settings: scale 0 to 100, 0 is no effect, 100 is complete control
Description: as §3

[21] = tested on: large (Lg) crabgrass (Digitaria sanguinalis); experiment: Test C postemergence; settings: scale 0 to 100, 0 is no effect, 100 is complete control
Description: as §3

[22] = tested on: velvetleaf (Abutilon theophrasti); experiment: Test C postemergence; settings: scale 0 to 100, 0 is no effect, 100 is complete control
Description: as §3

[23] = tested on: waterhemp (common waterhemp, Amaranthus rudis); experiment: Test C postemergence; settings: scale 0 to 100, 0 is no effect, 100 is complete control
Description: as §3

O=c1cccc(Oc2ncc(Cl)cn2)n1-c1ccc(C(F)(F)F)cc1 [Compound 10]
5: Plant response rating, Johnsongrass ([17]; 31 g ai/ha) | Plant response rating, Ryegrass, Italian ([18]; 16 g ai/ha) | Plant response rating, Ryegrass, Italian ([18]; 31 g ai/ha)
98: Plant response rating, Waterhemp ([23]; 62 g ai/ha) | Plant response rating, Waterhemp ([23]; 125 g ai/ha)
0: Plant response rating (0 to 100 scale, 0 no effect, 100 complete control), Ragweed ([6]; 31 g ai/ha) | Plant response rating (0 to 100 scale, 0 no effect, 100 complete control), Ryegrass, Italian ([7]; 31 g ai/ha) | Plant response rating (0 to 100 scale, 0 no effect, 100 complete control), Wheat ([16]; 31 g ai/ha) | Plant response rating, Johnsongrass ([17]; 16 g ai/ha)
30: Plant response rating (0 to 100 scale, 0 no effect, 100 complete control), Kochia (kochia (Kochia scoparia) [4]; 31 g ai/ha) | Plant response rating (0 to 100 scale, 0 no effect, 100 complete control), Blackgrass ([9]; 31 g ai/ha) | Plant response rating (0 to 100 scale, 0 no effect, 100 complete control), Corn (corn (Zea mays) [10]; 125 g ai/ha) | Plant response rating (0 to 100 scale, 0 no effect, 100 complete control), Galium ([11]; 31 g ai/ha)
50: Plant response rating (0 to 100 scale, 0 no effect, 100 complete control), Ryegrass, Italian ([1]; 125 g ai/ha) | Plant response rating (0 to 100 scale, 0 no effect, 100 complete control), Barnyardgrass ([2]; 31 g ai/ha) | Plant response rating (0 to 100 scale, 0 no effect, 100 complete control), Pigweed ([5]; 31 g ai/ha) | Plant response rating (0 to 100 scale, 0 no effect, 100 complete control), Blackgrass ([9]; 125 g ai/ha) | Plant response rating (0 to 100 scale, 0 no effect, 100 complete control), Foxtail, Giant ([12]; 31 g ai/ha) | Plant response rating, Galium ([20]; 31 g ai/ha)
35: Plant response rating, Johnsongrass ([17]; 62 g ai/ha) | Plant response rating, Crabgrass, Large ([21]; 31 g ai/ha) | Plant response rating, Velvetleaf ([22]; 31 g ai/ha)
40: Plant response rating (0 to 100 scale, 0 no effect, 100 complete control), Barnyardgrass ([8]; 31 g ai/ha)
45: Plant response rating, Galium ([20]; 16 g ai/ha)
80: Plant response rating (0 to 100 scale, 0 no effect, 100 complete control), Galium ([11]; 125 g ai/ha) | Plant response rating (0 to 100 scale, 0 no effect, 100 complete control), Kochia (kochia (Kochia scoparia) [13]; 31 g ai/ha) | Plant response rating, Galium ([20]; 125 g ai/ha) | Plant response rating, Crabgrass, Large ([21]; 125 g ai/ha) | Plant response rating, Waterhemp ([23]; 31 g ai/ha)
60: Plant response rating (0 to 100 scale, 0 no effect, 100 complete control), Kochia (kochia (Kochia scoparia) [4]; 125 g ai/ha) | Plant response rating (0 to 100 scale, 0 no effect, 100 complete control), Ryegrass, Italian ([7]; 125 g ai/ha) | Plant response rating, Crabgrass, Large ([21]; 62 g ai/ha) | Plant response rating, Velvetleaf ([22]; 62 g ai/ha)
20: Plant response rating (0 to 100 scale, 0 no effect, 100 complete control), Corn (corn (Zea mays) [10]; 31 g ai/ha) | Plant response rating (0 to 100 scale, 0 no effect, 100 complete control), Ragweed ([15]; 125 g ai/ha) | Plant response rating, Soybean (soybean (Glycine max)) | Plant response rating, Ryegrass, Italian ([18]; 125 g ai/ha) | Plant response rating, Corn (corn (Zea mays) [19]; 16 g ai/ha)
15: Plant response rating, Corn (corn (Zea mays) [19]; 31 g ai/ha) | Plant response rating, Velvetleaf ([22]; 16 g ai/ha)
75: Plant response rating, Galium ([20]; 62 g ai/ha) | Plant response rating, Waterhemp ([23]; 16 g ai/ha)
100: Plant response rating (0 to 100 scale, 0 no effect, 100 complete control), Foxtail, Giant ([3]; 125 g ai/ha) | Plant response rating (0 to 100 scale, 0 no effect, 100 complete control), Pigweed ([5]; 125 g ai/ha)
25: Plant response rating, Corn (corn (Zea mays) [19]; 62 g ai/ha) | Plant response rating, Corn (corn (Zea mays) [19]; 125 g ai/ha) | Plant response rating, Crabgrass, Large ([21]; 16 g ai/ha)
70: Plant response rating (0 to 100 scale, 0 no effect, 100 complete control), Foxtail, Giant ([3]; 31 g ai/ha) | Plant response rating (0 to 100 scale, 0 no effect, 100 complete control), Pigweed ([14]; 31 g ai/ha) | Plant response rating, Johnsongrass ([17]; 125 g ai/ha)
10: Plant response rating (0 to 100 scale, 0 no effect, 100 complete control), Ryegrass, Italian ([1]; 31 g ai/ha) | Plant response rating (0 to 100 scale, 0 no effect, 100 complete control), Ragweed ([6]; 125 g ai/ha) | Plant response rating (0 to 100 scale, 0 no effect, 100 complete control), Ragweed ([15]; 31 g ai/ha) | Plant response rating (0 to 100 scale, 0 no effect, 100 complete control), Wheat ([16]; 125 g ai/ha) | Plant response rating, Ryegrass, Italian ([18]; 62 g ai/ha)
90: Plant response rating (0 to 100 scale, 0 no effect, 100 complete control), Barnyardgrass ([2]; 125 g ai/ha) | Plant response rating (0 to 100 scale, 0 no effect, 100 complete control), Barnyardgrass ([8]; 125 g ai/ha) | Plant response rating (0 to 100 scale, 0 no effect, 100 complete control), Foxtail, Giant ([12]; 125 g ai/ha) | Plant response rating (0 to 100 scale, 0 no effect, 100 complete control), Kochia (kochia (Kochia scoparia) [13]; 125 g ai/ha) | Plant response rating (0 to 100 scale, 0 no effect, 100 complete control), Pigweed ([14]; 125 g ai/ha)
65: Plant response rating, Velvetleaf ([22]; 125 g ai/ha)
